How the values were obtained:
CSK-EGFP = CSK-EGFP (Homo sapiens, UniProt P41240); assay: Fluorescent pattern of CSK-EGFP co-localized with magnetic materials in live HeLa cells under a magnetic field; type: cell-based; details: HeLa cells transfected with CMV-CSK-EGFP; ligand presented on magnetic particles (MNP); NDGA 25~50 μM; magnetic field applied; FIG. 10(A)
Text: (§1) In this embodiment, it was observed whether a magnetized pattern of a plurality of magnetic materials formed by applying a magnetic field could be imaged by fluorescent labels when a surface-modified magnetic material was labeled with a fluorescent label through a mediator indirectly as well as directly. In addition, it was identified whether a fluorescent pattern was formed and overlapped (co-localized) with a pattern formed by magnetic materials in a direction of a line of magnetic force or not.
(§2) In addition, CSK (GenBank Acc. No. NM—004383.1) or SNF1LK (GenBank Acc. No. BCO38504) which binds to dasatinib was used for another linker constituting a mediator.
After HeLa cells were subcultured to 5,000˜10,000 cells/well on a 96-well plate, the HeLa cells were transfected by the expression vector DNA prepared as above. […] Magnetic materials coated with dasatinib-biotin were into the cells transfected with DNA by the method mentioned in Example 2, and then NDGA (Nordihydroguaiaretic acid, Sigma) was treated to the final concentration of 25˜50 μM.
In this embodiment, Olympus fluorescence microscope, FV1000, equipped with the object lens of Uplan Apo 40×/0.85 was used to obtain transmitted images in the cells.

SNF1LK-EGFP = target: T1, SNF1LK-EGFP (Homo sapiens, UniProt P57059); assay: Fluorescent pattern of SNF1LK-EGFP co-localized with magnetic materials in live HeLa cells under a magnetic field; type: cell-based; details: HeLa cells transfected with CMV-SNF1LK-EGFP; ligand presented on magnetic particles (MNP); NDGA 25~50 μM; magnetic field applied; FIG. 10(B)
T1 construct: ORF(open reading frame) clone without a stop codon was purchased from Open Biosystems; expressed in transfected cells; host or cells: HeLa
T1 sequence (P57059 whole entry): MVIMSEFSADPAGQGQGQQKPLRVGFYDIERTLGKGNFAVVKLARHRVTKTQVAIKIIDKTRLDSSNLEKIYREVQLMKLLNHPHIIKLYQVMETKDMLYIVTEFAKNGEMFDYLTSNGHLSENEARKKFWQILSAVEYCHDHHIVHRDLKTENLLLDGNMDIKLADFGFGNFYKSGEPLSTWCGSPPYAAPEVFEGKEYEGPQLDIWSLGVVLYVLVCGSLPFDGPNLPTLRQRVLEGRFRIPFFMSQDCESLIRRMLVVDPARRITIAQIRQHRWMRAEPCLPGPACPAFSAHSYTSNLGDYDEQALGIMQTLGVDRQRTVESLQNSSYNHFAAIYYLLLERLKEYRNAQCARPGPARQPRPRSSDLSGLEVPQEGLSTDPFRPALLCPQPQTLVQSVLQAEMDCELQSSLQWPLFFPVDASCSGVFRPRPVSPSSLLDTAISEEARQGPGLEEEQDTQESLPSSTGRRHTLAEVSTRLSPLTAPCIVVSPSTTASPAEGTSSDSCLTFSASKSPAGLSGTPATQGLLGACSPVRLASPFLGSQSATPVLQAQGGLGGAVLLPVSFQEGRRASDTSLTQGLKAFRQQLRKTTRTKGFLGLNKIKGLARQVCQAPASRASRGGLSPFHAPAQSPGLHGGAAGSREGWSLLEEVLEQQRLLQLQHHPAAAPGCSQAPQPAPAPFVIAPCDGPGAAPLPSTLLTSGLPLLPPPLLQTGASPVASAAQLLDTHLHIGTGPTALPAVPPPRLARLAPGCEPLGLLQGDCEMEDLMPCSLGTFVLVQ
Text: as §1, §2
A clone of SNF1LK (GenBank Acc. No. BCO38504) ORF(open reading frame) clone without a stop codon was purchased from Open Biosystems. SNF1LK ORF clone and CSK ORF clone were cloned into pCMV-DEST-EGFP by a known cloning method to produce CMV-SNF1LK-EGFP and CMV-CSK-EGFP expression vectors (Hartley, et al. (2000) DNA cloning using in vitro site-specific recombination. Genome Res. 10, 1788-1795).
After HeLa cells were subcultured to 5,000˜10,000 cells/well on a 96-well plate, the HeLa cells were transfected by the expression vector DNA prepared as above. […]

CSK-EGFP, sequence (P41240 whole entry): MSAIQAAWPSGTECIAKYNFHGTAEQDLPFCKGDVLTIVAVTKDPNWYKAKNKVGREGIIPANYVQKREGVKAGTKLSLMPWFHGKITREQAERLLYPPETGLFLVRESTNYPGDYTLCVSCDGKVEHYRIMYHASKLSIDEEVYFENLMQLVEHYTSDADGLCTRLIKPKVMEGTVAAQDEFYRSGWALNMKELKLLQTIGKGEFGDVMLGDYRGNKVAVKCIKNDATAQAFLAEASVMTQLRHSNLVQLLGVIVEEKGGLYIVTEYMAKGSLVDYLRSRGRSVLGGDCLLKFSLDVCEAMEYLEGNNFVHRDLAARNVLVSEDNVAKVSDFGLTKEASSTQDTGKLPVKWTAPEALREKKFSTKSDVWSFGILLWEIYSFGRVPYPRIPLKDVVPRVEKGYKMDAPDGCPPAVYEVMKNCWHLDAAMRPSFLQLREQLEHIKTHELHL

Cc1nc(Nc2ncc(C(=O)Nc3c(C)cccc3Cl)s2)cc(N2CCN(CCO)CC2)n1 [dasatinib, N-(2-chloro-6-methyl-phenyl)-2-(6-(4-(2-hydroxyethyl)-piperazin-1-yl)-2-methylpyrimidin-4-ylamino)thiazole-5-carboxamide]
fluorescent pattern of EGFP in a magnetized direction (direction of a line of magnetic force) (CSK-EGFP): identified
fluorescent pattern of EGFP in a magnetized direction (direction of a line of magnetic force) (SNF1LK-EGFP): identified

Source: patent US20110217727A1, “METHOD FOR PATTERNING MAGNETIC MATERIALS IN LIVE CELL, METHOD FOR IMAGING PATTERN OF MAGNETIC MATERIALS, AND APPARATUS USED FOR SAME” (MEDISCOV INC., priority 2008, published 2011)
